Data: patent publication US7226925B2, “Compounds, their use and preparation” (Biovitrum AB, priority 2002, dated 2007)
Where a name gives a salt, the structure may show the parent alone.

Assays:
human 5-HT2A receptor [1] = target: T1, human 5-HT2A receptor (Homo sapiens, UniProt P28223); experiment: Affinity assay, displacement of 3H-LSD, CHO cell line; assay type: binding; conditions: 3H-LSD radioligand, CHO cells
T1 construct: expressed in transfected cells; host or cells: CHO cells
Protocol: (§1) The binding affinities of the compounds for the human 5-HT2A and 5-HT2B receptors in CHO cell lines were determined using ^3H-labelled lysergic acid diethyl amide (LSD) and 5-HT, respectively, as radioligands. The binding affinities of the compounds for the human 5-HT1A and 5-HT1B receptors in CHO cell lines were determined similarly using ^3H-labelled 8-hydroxy-2-(di-n-propylamino)tetralin (8-OH-DPAT) and 5-HT, respectively, as radioligands.

human 5-HT2B receptor [2] = target: T2, human 5-HT2B receptor (Homo sapiens, UniProt P41595); experiment: In vitro functional assay, intracellular calcium mobilisation in CHO cells; assay type: cell-based; conditions: for EC50: calcium mobilisation, CHO cells; for Efficacy 5-HT2B: maximum response at 1 μM relative to maximum response of 5-HT at 1 μM
T2 construct: expressed in transfected cells; host or cells: CHO cells
T2 sequence (P41595 whole entry): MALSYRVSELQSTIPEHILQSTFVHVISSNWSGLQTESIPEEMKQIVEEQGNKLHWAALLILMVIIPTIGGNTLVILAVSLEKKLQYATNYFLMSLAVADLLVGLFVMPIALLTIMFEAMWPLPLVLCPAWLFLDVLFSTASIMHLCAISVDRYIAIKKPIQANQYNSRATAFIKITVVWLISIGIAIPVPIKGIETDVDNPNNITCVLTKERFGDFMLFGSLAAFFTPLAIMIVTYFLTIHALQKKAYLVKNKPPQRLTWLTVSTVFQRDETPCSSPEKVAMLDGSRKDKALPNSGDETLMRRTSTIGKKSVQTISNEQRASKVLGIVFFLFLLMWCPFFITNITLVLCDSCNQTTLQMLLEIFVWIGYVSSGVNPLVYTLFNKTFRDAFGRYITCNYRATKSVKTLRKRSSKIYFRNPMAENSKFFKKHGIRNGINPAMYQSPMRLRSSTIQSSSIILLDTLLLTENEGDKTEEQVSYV
Protocol: (§2) The ability of the compounds to mobilise intracellular calcium at the 5HT2A and 5-HT2B receptors was determined similarly using CHO cells expressing the human 5-HT2A or human 5-HT2B receptors.
(§3) The maximum functional responses of the compounds, at 1 μM, at the 5-HT2A, 5-HT2B and 5-HT2C receptors are expressed relative to the maximum response of 5-HT (serotonin) at a concentration of 1 μM.

human 5-HT2A receptor [3] = target: T1, human 5-HT2A receptor; experiment: as above; assay type: cell-based; conditions: for EC50: calcium mobilisation, CHO cells; for Efficacy 5-HT2A: maximum response at 1 μM relative to maximum response of 5-HT at 1 μM
Protocol: as §2, §3

human 5-HT2B receptor [4] = target: T2, human 5-HT2B receptor; experiment: Affinity assay, displacement of 3H-5-HT, CHO cell line; assay type: binding; conditions: 3H-5-HT radioligand, CHO cells
Protocol: as §1

human 5-HT1B receptor = target: T3, human 5-HT1B receptor (Homo sapiens, UniProt P28222); experiment: as above; assay type: binding; conditions: 3H-5-HT radioligand, CHO cells
T3 construct: expressed in transfected cells; host or cells: CHO cell line
T3 sequence (P28222 whole entry): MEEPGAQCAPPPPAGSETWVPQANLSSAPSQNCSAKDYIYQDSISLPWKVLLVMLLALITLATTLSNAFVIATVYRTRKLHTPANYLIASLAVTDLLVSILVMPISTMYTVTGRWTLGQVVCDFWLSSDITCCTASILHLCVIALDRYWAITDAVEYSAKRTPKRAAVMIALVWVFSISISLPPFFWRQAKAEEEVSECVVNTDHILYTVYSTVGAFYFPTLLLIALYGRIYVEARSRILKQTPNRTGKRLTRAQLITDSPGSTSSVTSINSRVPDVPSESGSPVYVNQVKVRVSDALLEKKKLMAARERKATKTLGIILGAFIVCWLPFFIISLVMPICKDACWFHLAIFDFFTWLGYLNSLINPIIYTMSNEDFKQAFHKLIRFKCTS
Protocol: as §1

human 5-HT1A receptor = target: T4, human 5-HT1A receptor (Homo sapiens, UniProt P08908); experiment: Affinity assay, displacement of 3H-8-OH-DPAT, CHO cell line; assay type: binding; conditions: 3H-8-OH-DPAT radioligand, CHO cells
T4 construct: expressed in transfected cells; host or cells: CHO cell line
T4 sequence (P08908 1-422): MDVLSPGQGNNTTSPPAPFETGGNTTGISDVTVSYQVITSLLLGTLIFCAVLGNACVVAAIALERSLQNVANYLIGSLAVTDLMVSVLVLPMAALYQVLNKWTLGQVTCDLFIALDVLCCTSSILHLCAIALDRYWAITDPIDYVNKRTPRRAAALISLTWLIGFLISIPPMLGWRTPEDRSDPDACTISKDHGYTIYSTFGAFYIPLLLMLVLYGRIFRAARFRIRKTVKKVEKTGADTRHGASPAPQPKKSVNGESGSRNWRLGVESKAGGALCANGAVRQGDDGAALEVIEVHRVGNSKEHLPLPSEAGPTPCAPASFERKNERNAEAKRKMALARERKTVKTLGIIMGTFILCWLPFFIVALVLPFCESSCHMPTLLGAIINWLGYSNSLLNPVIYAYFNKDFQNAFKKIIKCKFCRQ
Protocol: as §1

human 5-HT2C receptor [5] = target: T5, human 5-HT2C receptor (Homo sapiens, UniProt P28335); experiment: Affinity assay, displacement of 3H-5-HT, membranes of transfected HEK293 cells, Scintillation Proximity Assay; assay type: binding; conditions: 3H-5-HT radioligand
T5 construct: expressed in transfected cells
T5 sequence (P28335 33-458): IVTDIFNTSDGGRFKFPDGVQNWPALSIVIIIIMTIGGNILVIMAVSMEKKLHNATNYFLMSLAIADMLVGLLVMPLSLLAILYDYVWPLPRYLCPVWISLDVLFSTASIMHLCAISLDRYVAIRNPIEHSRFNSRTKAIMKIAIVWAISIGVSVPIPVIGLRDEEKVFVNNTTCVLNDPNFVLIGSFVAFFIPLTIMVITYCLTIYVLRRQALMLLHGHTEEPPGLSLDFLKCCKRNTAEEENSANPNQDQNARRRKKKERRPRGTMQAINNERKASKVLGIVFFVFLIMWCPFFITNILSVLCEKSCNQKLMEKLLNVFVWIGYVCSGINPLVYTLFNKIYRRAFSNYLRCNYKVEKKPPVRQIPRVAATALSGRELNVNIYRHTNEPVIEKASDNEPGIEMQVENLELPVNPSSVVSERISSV
Protocol: The receptor affinity of compounds in the Examples was determined in competition experiments, where the ability of each compound in serial dilution to displace ^3H-labelled 5-HT, bound to membranes prepared from a transfected HEK293 cell line stably expressing the human 5-HT2C receptor protein, was monitored by Scintillation Proximity Assay technology. Non-specific binding was defined using 5 μM mianserin.

human 5-HT2C receptor [6] = target: T5, human 5-HT2C receptor; experiment: In vitro functional assay, intracellular calcium mobilisation in transfected HEK293 cells (FLUO-3); assay type: cell-based; conditions: for EC50: calcium mobilisation, HEK293 cells; for Efficacy 5-HT2C: maximum response at 1 μM relative to maximum response of 5-HT at 1 μM
Protocol: The agonist efficacy at the 5-HT2C receptor of the compounds in the Examples was determined by the ability of each compound to mobilise intracellular calcium in transfected HEK293 cells, stably expressing the human 5-HT2C receptor protein, using the calcium-chelating fluorescent dye FLUO-3 (Sigma, St. Louis, Mo., U.S.A.).

T1 sequence (P28223 whole entry): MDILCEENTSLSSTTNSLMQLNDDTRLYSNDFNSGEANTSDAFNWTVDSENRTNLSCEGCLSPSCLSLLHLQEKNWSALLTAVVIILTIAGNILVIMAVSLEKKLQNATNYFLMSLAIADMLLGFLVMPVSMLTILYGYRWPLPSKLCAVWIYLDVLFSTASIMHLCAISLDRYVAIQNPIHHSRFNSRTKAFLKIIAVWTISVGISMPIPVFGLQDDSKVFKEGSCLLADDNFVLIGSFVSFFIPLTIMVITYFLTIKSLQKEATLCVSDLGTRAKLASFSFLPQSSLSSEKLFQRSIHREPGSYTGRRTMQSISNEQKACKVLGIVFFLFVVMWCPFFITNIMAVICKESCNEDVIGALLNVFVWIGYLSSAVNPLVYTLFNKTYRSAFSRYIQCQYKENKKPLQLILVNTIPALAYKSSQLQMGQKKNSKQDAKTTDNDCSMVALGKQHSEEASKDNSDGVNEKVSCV

Question: For CC(C)N(CCOc1ncccc1OCCOc1nccnc1N1CCNC[C@H]1C)C(C)C (as salt: acetate) [Example 2, N,N-Diisopropyl-(2-(3-[2-(2-(R)-methyl-3,4,5,6-tetrahydro-2H-[1,2′]bipyrazinyl-3′-yloxy)-ethoxy]-pyridin-2-yloxy)-ethyl)-amine], which melting point is on record?
Answer: 87 °C

Question: For CC(C)N(CCOc1ncccc1OCCOc1nccnc1N1CCNC[C@H]1C)C(C)C [Example 2, N,N-Diisopropyl-(2-(3-[2-(2-(R)-methyl-3,4,5,6-tetrahydro-2H-[1,2′]bipyrazinyl-3′-yloxy)-ethoxy]-pyridin-2-yloxy)-ethyl)-amine], which Ki (human 5-HT2A receptor [1]) is on record?
Answer: > 1000 nM

Question: What about the EC50 (human 5-HT2B receptor [2]) of the same compound?
Answer: 900 nM

Question: And the “Efficacy 5-HT2B” value (human 5-HT2B receptor [2])?
Answer: 33%

Question: What about the EC50 (human 5-HT2A receptor [3]) of the same compound?
Answer: 260 nM

Question: What about the “Efficacy 5-HT2A” value (human 5-HT2A receptor [3]) of the same compound?
Answer: 40%

Question: And the Ki (human 5-HT2B receptor [4])?
Answer: > 1000 nM

Question: And the Ki (human 5-HT1B receptor)?
Answer: 200 nM

Question: And the Ki (human 5-HT1A receptor)?
Answer: 380 nM

Question: What about the Ki (human 5-HT2C receptor [5]) of the same compound?
Answer: 10 nM

Question: And the EC50 (human 5-HT2C receptor [6])?
Answer: 3.9 nM

Question: What about the “Efficacy 5-HT2C” value (human 5-HT2C receptor [6]) of the same compound?
Answer: 111%

Question: For C[C@@H]1CNCCN1c1nccnc1OCCOc1cccnc1OCCN(C)C (as salt: acetate) [Example 1, N,N-Dimethyl-(2-(3-[2-(2-(R)-methyl-3,4,5,6-tetrahydro-2H-[1,2′]bipyrazinyl-3′-yloxy)-ethoxy]-pyridin-2-yloxy)-ethyl)-amine], which melting point is on record?
Answer: 75 °C

Question: For C[C@@H]1CNCCN1c1nccnc1OCCOc1cccnc1OCCN(C)C [Example 1, N,N-Dimethyl-(2-(3-[2-(2-(R)-methyl-3,4,5,6-tetrahydro-2H-[1,2′]bipyrazinyl-3′-yloxy)-ethoxy]-pyridin-2-yloxy)-ethyl)-amine], which Ki (human 5-HT2A receptor [1]) is on record?
Answer: > 1000 nM

Question: And the EC50 (human 5-HT2B receptor [2])?
Answer: 1940 nM

Question: What about the “Efficacy 5-HT2B” value (human 5-HT2B receptor [2]) of the same compound?
Answer: 16%

Question: What about the EC50 (human 5-HT2A receptor [3]) of the same compound?
Answer: 1200 nM

Question: And the “Efficacy 5-HT2A” value (human 5-HT2A receptor [3])?
Answer: 14%

Question: What about the Ki (human 5-HT2B receptor [4]) of the same compound?
Answer: > 1000 nM

Question: And the Ki (human 5-HT1B receptor)?
Answer: > 1000 nM

Question: What about the Ki (human 5-HT1A receptor) of the same compound?
Answer: 800 nM

Question: What about the Ki (human 5-HT2C receptor [5]) of the same compound?
Answer: 12 nM

Question: And the EC50 (human 5-HT2C receptor [6])?
Answer: 4.2 nM

Question: And the “Efficacy 5-HT2C” value (human 5-HT2C receptor [6])?
Answer: 117%
